# Test results from BindingDB's records for PubMed 33309162 (Universita Degli Studi di Palermo, 2021).
# Target: PI3K catalytic subunit alpha (PIK3CA), rat
# Experiment: Inhibition of PI3Kalpha in rat Rat1 cells reduction in phosphorylation of AKT at Ser473 residue incubated for 2 hrs by alpha screen assay
row,IC50,Compound
1,> 10 µM,N#Cc1c(N)ncnc1N1CSC[C@H]1c1nc2cccc(Cl)c2c(=O)n1-c1cccs1
2,> 10 µM,CN1CCN(C)/C(=N/c2ccc([N+](=O)[O-])cc2C(=O)Nc2ccccc2)C1
3,> 10 µM,Cn1nccc1-n1c([C@@H]2CSCN2c2ncnc(N)c2C#N)nc2cccc(Cl)c2c1=O
